Test results published in the supplement of paper PMC10627819.

Key:
[1] = system: B. subtilis 168; test: fitness (endpoint OD595 vs no drug) (fraction); higher = more growth
Procedure, shortened: (§1)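 Fitness compares growth at the stationary-phase transition with the robust mean of no-drug control wells, as a ratio of optical densities. The ratio is capped at 1. Wells of 384-well plates held 30 µl, or 55 µl for S. pneumoniae, inoculated at OD595 0.01. Readings at OD595 every 30 min for 14 h at 37 °C were corrected against the first reading.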

[2] = system: S. aureus DSM 20231; test: as above
Procedure, shortened: as §1

[3] = system: S. aureus Newman; test: as above
Procedure, shortened: as §1

[4] = system: S. pneumoniae D39V; test: as above
Procedure, shortened: as §1

[5] = system: B. subtilis 168; test: Bliss interaction score (quartile over a dose matrix) (fitness difference); higher = more antagonism (negative = synergy)
Procedure, shortened: (§2)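 The Bliss score is observed minus expected fitness under the product model, reported as quartiles over technical, biological and donor/recipient replicates. Fitness is the OD595 at entry into stationary phase divided by the plate's robust no-drug mean and capped at 1. Single-drug fitness was inferred from combination data.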

[6] = system: S. aureus DSM 20231; test: as above
Procedure, shortened: as §2

[7] = system: S. aureus Newman; test: as above
Procedure, shortened: as §2

[8] = system: S. pneumoniae D39V; test: as above
Procedure, shortened: as §2
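Wherever Bliss interaction score (quartile over a dose matrix) is given: first quartile when negative (synergy) and third quartile when positive (antagonism).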

CCC[C@@H]1C[C@@H](C(=O)N[C@@H]([C@H]2O[C@H](SC)[C@H](O)[C@@H](O)[C@H]2O)[C@H](C)Cl)N(C)C1 [Clindamycin] + C[n+]1ccc(-c2cc[n+](C)cc2)cc1 [Paraquat]
fitness, one replicate
Details	first compound 0.0039 µg/mL	first compound 0.0078 µg/mL	first compound 0.015 µg/mL	first compound 0.0156 µg/mL	first compound 0.03 µg/mL	first compound 0.06 µg/mL
[1], partner 1.25 µg/mL	≥ 1	0.914	–	0.847	–	–
[1], partner 2.5 µg/mL	0.958	0.846	–	0.857	–	–
[1], partner 5 µg/mL	0.972	0.873	–	0.83	–	–
[4], partner 1.5 µg/mL	–	–	0.934	–	0.85	0.692
[4], partner 3 µg/mL	–	–	0.949	–	0.92	0.763
[4], partner 6 µg/mL	–	–	≥ 1	–	0.914	0.805

fitness
Details	partner 1.25 µg/mL	partner 1.5 µg/mL	partner 2.5 µg/mL	partner 3 µg/mL	partner 5 µg/mL	partner 6 µg/mL
[1], first compound 0.0625 µg/mL	0.607	–	0.513	–	0.512	–
[1], first compound 0.125 µg/mL	0.392	–	0.366	–	0.359	–
[1], first compound 0.25 µg/mL	0.363	–	0.352	–	0.281	–
[2], first compound 0.0625 µg/mL	0.181	–	0.192	–	0.14	–
[2], first compound 0.125 µg/mL	0.0613	–	0.113	–	0.0771	–
[3], first compound 0.0312 µg/mL	0.607	–	0.57	–	0.516	–
[3], first compound 0.0625 µg/mL	0.271	–	0.241	–	0.207	–
[3], first compound 0.125 µg/mL	0.0526	–	0.0427	–	0.0913	–
[4], first compound 0.0125 µg/mL	–	0.744	–	0.749	–	0.733
[4], first compound 0.025 µg/mL	–	0.489	–	0.482	–	0.458
[4], first compound 0.05 µg/mL	–	0.24	–	0.228	–	0.195

Details	Bliss interaction score
[5]	0.0483
[6]	-0.0477
[7]	-0.112
[8]	0.0554

CCC[C@@H]1C[C@@H](C(=O)N[C@@H]([C@H]2O[C@H](SC)[C@H](O)[C@@H](O)[C@H]2O)[C@H](C)Cl)N(C)C1 [Clindamycin] + Cc1cc(NS(=O)(=O)c2ccc(N)cc2)no1 [Sulfamethoxazol]
one replicate
Details	fitness
[1], first compound 0.0039 µg/mL, partner 1 µg/mL	≥ 1
[1], first compound 0.0039 µg/mL, partner 2 µg/mL	≥ 1
[1], first compound 0.0039 µg/mL, partner 4 µg/mL	≥ 1
[1], first compound 0.0078 µg/mL, partner 1 µg/mL	0.884
[1], first compound 0.0078 µg/mL, partner 2 µg/mL	0.853
[1], first compound 0.0078 µg/mL, partner 4 µg/mL	0.868
[1], first compound 0.0156 µg/mL, partner 1 µg/mL	0.866
[1], first compound 0.0156 µg/mL, partner 2 µg/mL	0.981
[1], first compound 0.0156 µg/mL, partner 4 µg/mL	0.907
[1], first compound 0.0625 µg/mL, partner 0.5 µg/mL	0.666
[1], first compound 0.125 µg/mL, partner 0.5 µg/mL	0.466
[1], first compound 0.25 µg/mL, partner 0.5 µg/mL	0.363
[3], first compound 0.0312 µg/mL, partner 8 µg/mL	0.896
[3], first compound 0.0625 µg/mL, partner 8 µg/mL	0.934
[3], first compound 0.125 µg/mL, partner 8 µg/mL	0.709
[4], first compound 0.015 µg/mL, partner 1 µg/mL	0.873
[4], first compound 0.015 µg/mL, partner 2 µg/mL	0.914
[4], first compound 0.015 µg/mL, partner 4 µg/mL	0.812
[4], first compound 0.03 µg/mL, partner 1 µg/mL	0.783
[4], first compound 0.03 µg/mL, partner 2 µg/mL	0.777
[4], first compound 0.03 µg/mL, partner 4 µg/mL	0.717
[4], first compound 0.06 µg/mL, partner 1 µg/mL	0.64
[4], first compound 0.06 µg/mL, partner 2 µg/mL	0.69
[4], first compound 0.06 µg/mL, partner 4 µg/mL	0.621

fitness
Details	partner 1 µg/mL	partner 2 µg/mL	partner 4 µg/mL
[1], first compound 0.0625 µg/mL	0.571	0.544	0.579
[1], first compound 0.125 µg/mL	0.422	0.395	0.431
[1], first compound 0.25 µg/mL	0.33	0.321	0.332
[2], first compound 0.0625 µg/mL	0.0971	0.0985	0.0862
[2], first compound 0.125 µg/mL	0.0349	0.0282	0.0345
[3], first compound 0.0312 µg/mL	0.757	–	–
[3], first compound 0.125 µg/mL	0.149	–	–
[4], first compound 0.0125 µg/mL	0.687	0.711	0.739
[4], first compound 0.025 µg/mL	0.462	0.443	0.45
[4], first compound 0.05 µg/mL	0.206	0.191	0.219

Details	Bliss interaction score
[5]	-0.0677
[6]	-0.0287
[7]	0.0865
[8]	-0.0442
